± gives the standard deviation of the averaged measurements.
Experiments:
Conditions in all cases: treatment time: 3 days
UT-SCC-24A = assay: drug sensitivity score (DSS); higher = more sensitive
Description: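 HNSCC cell lines (500 cells/well, 384-well) were cultured on plastic, on top of (2D) or embedded (3D) in Matrigel or human leiomyoma matrix Myogel (500 ug/mL; Myogel 3D mixed with rat collagen I). Cells were treated for 3 days with 5 ten-fold concentrations of each drug, and viability was read by CellTiter-Glo. Suffixes _1/_2/_3 on drug names are replicates.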

UT-SCC-40 [1] = assay: relative IC50 (midpoint of the fitted curve; maximal inhibition may be below 50%); higher = less potent
In short: (§1)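 HPV-negative HNSCC cell lines were plated at 500 cells/well in 384-well plates, either on plastic, on wells coated with Matrigel or Myogel (500 µg/mL), or embedded in Matrigel or Myogel plus rat collagen I. Each compound was tested at five 10-fold concentrations over 3 days. Viability was measured by CellTiter-Glo 2.0 luminescence, and IC50, maximal inhibition and drug sensitivity score came from percent-inhibition dose–response curves fitted in the FIMM pipeline after normalisation to vehicle (0.1% DMSO) and cell-killing control wells.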

UT-SCC-24B [2] = assay: as above
In short: as §1

UT-SCC-44 [3] = assay: as above
In short: as §1

UT-SCC-73 [4] = assay: as above
In short: as §1

UT-SCC-106A [5] = assay: as above
In short: as §1

UT-SCC-8 [6] = assay: as above
In short: as §1

UT-SCC-14 [7] = assay: as above
In short: as §1

UT-SCC-42B [8] = assay: as above
In short: as §1

UT-SCC-42A = assay: maximal % inhibition of viability relative to DMSO; higher = stronger effect
Description: (§2)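 HNSCC cell lines (500 cells/well, 384-well) were cultured on plastic, on top of (2D) or embedded (3D) in Matrigel or human leiomyoma matrix Myogel (500 ug/mL; Myogel 3D mixed with rat collagen I). Cells were treated for 3 days with 5 ten-fold concentrations of each drug, and viability was read by CellTiter-Glo. Viability was normalised to DMSO and benzethonium chloride controls and fitted with the FIMM DSRT pipeline to give IC50 (nM), maximal % inhibition and DSS. Suffixes _1/_2/_3 are replicates. Only inhibition-mode (IC50) fits are kept.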

UT-SCC-40 [9] = assay: as above
Description: as §2

UT-SCC-24B [10] = assay: as above
Description: as §2

UT-SCC-28 = assay: as above
Description: as §2

UT-SCC-81 = assay: as above
Description: as §2

UT-SCC-44 [11] = assay: as above
Description: as §2

UT-SCC-73 [12] = assay: as above
Description: as §2

UT-SCC-106A [13] = assay: as above
Description: as §2

UT-SCC-8 [14] = assay: as above
Description: as §2

UT-SCC-14 [15] = assay: as above
Description: as §2

UT-SCC-42B [16] = assay: as above
Description: as §2

[17] = culture condition: embedded in Matrigel
[18] = culture condition: embedded in Myogel + collagen I
[19] = culture condition: on top of Matrigel
[20] = culture condition: on top of Myogel
[21] = culture condition: plastic 2D (no matrix)

relative IC50 (UT-SCC-40 [1]; [17]): 48.9 nM
relative IC50 (UT-SCC-40 [1]; [18]): 1310 nM
relative IC50 (UT-SCC-40 [1]; [19]): 65.8 nM
relative IC50 (UT-SCC-40 [1]; [20]): 1270 nM
relative IC50 (UT-SCC-40 [1]; [21]): 211 nM
relative IC50 (UT-SCC-24B [2]; [17]): 253 nM
relative IC50 (UT-SCC-24B [2]; [18]): 1530 nM
relative IC50 (UT-SCC-24B [2]; [19]): 234 nM
relative IC50 (UT-SCC-24B [2]; [20]): 1580 nM
relative IC50 (UT-SCC-24B [2]; [21]): 63.1 nM
relative IC50 (UT-SCC-44 [3]; [17]): 3360 nM
relative IC50 (UT-SCC-44 [3]; [18]): 2360 nM
relative IC50 (UT-SCC-44 [3]; [19]): 1660 nM
relative IC50 (UT-SCC-44 [3]; [20]): 2050 nM
relative IC50 (UT-SCC-44 [3]; [21]): 1910 nM
relative IC50 (UT-SCC-73 [4]; [17]): 2120 nM
relative IC50 (UT-SCC-73 [4]; [18]): 2070 nM
relative IC50 (UT-SCC-73 [4]; [19]): 1660 nM
relative IC50 (UT-SCC-73 [4]; [20]): 1750 nM
relative IC50 (UT-SCC-73 [4]; [21]): 1650 nM
relative IC50 (UT-SCC-106A [5]; [17]): 319 nM
relative IC50 (UT-SCC-106A [5]; [18]): 2830 nM
relative IC50 (UT-SCC-106A [5]; [19]): 171 nM
relative IC50 (UT-SCC-106A [5]; [20]): 2270 nM
relative IC50 (UT-SCC-106A [5]; [21]): 126 nM
relative IC50 (UT-SCC-8 [6]; [17]): 34.9 nM
relative IC50 (UT-SCC-8 [6]; [18]): 3640 nM
relative IC50 (UT-SCC-8 [6]; [19]): 35.7 nM
relative IC50 (UT-SCC-8 [6]; [20]): 912 nM
relative IC50 (UT-SCC-8 [6]; [21]): 39.3 nM
relative IC50 (UT-SCC-14 [7]; [17]): 49 nM
relative IC50 (UT-SCC-14 [7]; [18]): 970 nM
relative IC50 (UT-SCC-14 [7]; [19]): 59.1 nM
relative IC50 (UT-SCC-14 [7]; [20]): 310 nM
relative IC50 (UT-SCC-14 [7]; [21]): 61.2 nM
relative IC50 (UT-SCC-42B [8]; [17]): 75.9 nM
relative IC50 (UT-SCC-42B [8]; [19]): 299 nM
relative IC50 (UT-SCC-42B [8]; [20]): 2470 nM
relative IC50 (UT-SCC-42B [8]; [21]): 808 nM
SMILES: C=CC(=O)Nc1cc2c(Nc3ccc(F)c(Cl)c3)ncnc2cc1OCCCN1CCOCC1 [Canertinib]
drug sensitivity score (UT-SCC-24A; [17]): 27.8 ± 2 DSS
drug sensitivity score (UT-SCC-24A; [18]): 11 ± 3.6 DSS
drug sensitivity score (UT-SCC-24A; [19]): 23.5 ± 0.87 DSS
drug sensitivity score (UT-SCC-24A; [20]): 8.7 ± 0.2 DSS
drug sensitivity score (UT-SCC-24A; [21]): 23.5 ± 1.5 DSS
maximal % inhibition of viability (UT-SCC-42A; [17]): 96.9 ± 4.2%
maximal % inhibition of viability (UT-SCC-42A; [18]): 97.4 ± 3.2%
maximal % inhibition of viability (UT-SCC-42A; [19]): 98.3 ± 1.7%
maximal % inhibition of viability (UT-SCC-42A; [20]): 98 ± 1.9%
maximal % inhibition of viability (UT-SCC-42A; [21]): 99.23 ± 0.8%
maximal % inhibition of viability (UT-SCC-40 [9]; [17]): 99.5 ± 0.46%
maximal % inhibition of viability (UT-SCC-40 [9]; [18]): 99.37 ± 0.55%
maximal % inhibition of viability (UT-SCC-40 [9]; [19]): 99.73 ± 0.38%
maximal % inhibition of viability (UT-SCC-40 [9]; [20]): 99.63 ± 0.55%
maximal % inhibition of viability (UT-SCC-40 [9]; [21]): 99.67 ± 0.58%
maximal % inhibition of viability (UT-SCC-24B [10]; [17]): 99.67 ± 0.31%
maximal % inhibition of viability (UT-SCC-24B [10]; [18]): 99.33 ± 0.61%
maximal % inhibition of viability (UT-SCC-24B [10]; [19]): 99.83 ± 0.29%
maximal % inhibition of viability (UT-SCC-24B [10]; [20]): 99.7 ± 0.52%
maximal % inhibition of viability (UT-SCC-24B [10]; [21]): 99.47 ± 0.46%
maximal % inhibition of viability (UT-SCC-28; [17]): 82.3 ± 4.4%
maximal % inhibition of viability (UT-SCC-28; [18]): 90.8 ± 3.4%
maximal % inhibition of viability (UT-SCC-28; [19]): 86.1 ± 2.4%
maximal % inhibition of viability (UT-SCC-28; [21]): 80.9 ± 5.2%
maximal % inhibition of viability (UT-SCC-81; [17]): 99.63 ± 0.4%
maximal % inhibition of viability (UT-SCC-81; [18]): 99.77 ± 0.32%
maximal % inhibition of viability (UT-SCC-81; [19]): 99.27 ± 0.64%
maximal % inhibition of viability (UT-SCC-81; [20]): 99.13 ± 0.75%
maximal % inhibition of viability (UT-SCC-81; [21]): 99.77 ± 0.4%
maximal % inhibition of viability (UT-SCC-44 [11]; [17]): 77.5 ± 7%
maximal % inhibition of viability (UT-SCC-44 [11]; [18]): 92.5 ± 2.4%
maximal % inhibition of viability (UT-SCC-44 [11]; [19]): 92 ± 3.6%
maximal % inhibition of viability (UT-SCC-44 [11]; [20]): 95 ± 3.5%
maximal % inhibition of viability (UT-SCC-44 [11]; [21]): 94.1 ± 3.5%
maximal % inhibition of viability (UT-SCC-73 [12]; [17]): 99.5 ± 0.46%
maximal % inhibition of viability (UT-SCC-73 [12]; [18]): 99.57 ± 0.59%
maximal % inhibition of viability (UT-SCC-73 [12]; [19]): 99.13 ± 0.78%
maximal % inhibition of viability (UT-SCC-73 [12]; [20]): 98.9 ± 0.98%
maximal % inhibition of viability (UT-SCC-73 [12]; [21]): 99.5 ± 0.7%
maximal % inhibition of viability (UT-SCC-106A [13]; [17]): 95.6 ± 2%
maximal % inhibition of viability (UT-SCC-106A [13]; [18]): 95.1 ± 1.2%
maximal % inhibition of viability (UT-SCC-106A [13]; [19]): 97.3 ± 2.1%
maximal % inhibition of viability (UT-SCC-106A [13]; [20]): 97.6 ± 1%
maximal % inhibition of viability (UT-SCC-106A [13]; [21]): 98.83 ± 0.94%
maximal % inhibition of viability (UT-SCC-8 [14]; [17]): 99.83 ± 0.29%
maximal % inhibition of viability (UT-SCC-8 [14]; [18]): 99 ± 1%
maximal % inhibition of viability (UT-SCC-8 [14]; [19]): 99.967 ± 0.058%
maximal % inhibition of viability (UT-SCC-8 [14]; [20]): 99.967 ± 0.058%
maximal % inhibition of viability (UT-SCC-8 [14]; [21]): 99.37 ± 0.85%
maximal % inhibition of viability (UT-SCC-14 [15]; [17]): 99.23 ± 0.75%
maximal % inhibition of viability (UT-SCC-14 [15]; [18]): 98.8 ± 1.1%
maximal % inhibition of viability (UT-SCC-14 [15]; [19]): 99.7 ± 0.27%
maximal % inhibition of viability (UT-SCC-14 [15]; [20]): 98.7 ± 1.7%
maximal % inhibition of viability (UT-SCC-14 [15]; [21]): 98.5 ± 1.4%
maximal % inhibition of viability (UT-SCC-42B [16]; [17]): 99.5 ± 0.36%
maximal % inhibition of viability (UT-SCC-42B [16]; [19]): 99.87 ± 0.23%
maximal % inhibition of viability (UT-SCC-42B [16]; [20]): 99.77 ± 0.4%
maximal % inhibition of viability (UT-SCC-42B [16]; [21]): 99.17 ± 0.74%
